Molecules are shown by their SMILES.

The target of the first assay is human Melanocortin-4 receptor (MC4R) (Homo sapiens (Human), UniProt P32245). As to the kind of experiment: Functional in vitro MC4R antagonist potency assay (cAMP HTRF in CHO cells). It is filed as cell-based. The note with it: human MC4R in CHO cells, cAMP HTRF, 200 nM aMSH challenge; Kb from IC50 by Leff-Dougall equation; geometric mean; read-out: Kb (nM) Antagonist geometric. On the procedure: Example BB. Functional In Vitro MC4R Antagonist Potency Assay
Sequence of human Melanocortin-4 receptor (MC4R) (P32245 whole entry): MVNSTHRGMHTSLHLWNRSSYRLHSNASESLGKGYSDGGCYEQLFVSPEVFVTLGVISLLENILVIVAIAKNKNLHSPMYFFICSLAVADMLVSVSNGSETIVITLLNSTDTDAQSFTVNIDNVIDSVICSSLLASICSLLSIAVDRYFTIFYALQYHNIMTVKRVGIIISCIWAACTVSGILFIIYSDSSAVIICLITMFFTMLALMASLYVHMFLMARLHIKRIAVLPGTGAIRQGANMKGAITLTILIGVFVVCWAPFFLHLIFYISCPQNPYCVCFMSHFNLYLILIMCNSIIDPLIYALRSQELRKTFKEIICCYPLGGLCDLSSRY
The functional in vitro antagonist potency for test compounds was determined by monitoring intracellular cyclic adenosine monophosphate (cAMP) levels in Chinese hamster ovary (CHO—) cells stably expressing the human Melanocortin-4 receptor (MC4R). Following agonist activation, human MC4R associates with the G-protein complex causing the Gα subunit to exchange bound GDP for GTP, followed by dissociation of the Ga-GTP complex. The activated Gα subunit can couple to downstream effectors to regulate the levels of second messengers or cAMP within the cell. Thereby, determination of intracellular cAMP levels allows for pharmacological characterization. Intracellular cAMP levels are quantitated using a homogenous assay utilizing the Homogeneous Time-Resolved Fluorescence (HTRF) technology from CisBio. The method is a competitive immunoassay between native cAMP produced by cells and the cAMP labelled with the acceptor dye, d2. The two entities then compete for binding to a monoclonal anti-cAMP antibody labeled with cryptate. The specific signal is inversely proportional to the concentration of cAMP in the cells.
Test compounds were solubilized to 30 mM in 100% dimethyl sulfoxide (DMSO) and stored. […] The final compound concentration range in the assay was 400 nM to […], with a final DMSO concentration of 0.1%.
(95% O2: 5% CO2) overnight, with micro-clime lids (Labcyte, Cat No. LLS-0310). […] Cells were incubated with compound for 30 minutes at 37° C. (95% O2: 5% CO2) before addition of 5 μL EC80, agonist stimulation (200 nM α-melanocyte stimulating hormone, aMSH, Bachem) and another 30-minute incubation at 37° C. (95% O2: 5% CO2). Intracellular cAMP levels were quantified as per Cisbio's protocol (5 uL of D2 and then 5 uL Cryptate, incubated for 1-2 hours at room temperature).
Data expressed as nM cAMP were then normalized to control wells using Activity Base (IDBS). Zero percent effect (ZPE) was defined as nM of cAMP generated from ECK, agonist stimulation (200 nM aMSH). In the absence of an antagonist control compound, one hundred percent effect (HPE) was defined as nM of cAMP generated from assay buffer/vehicle only.
On to `COc1cc([C@@H](C)C(=O)N2CC[C@@]3(CCc4cc(-c5cnn(C)c5)c(C)nc4N3)C2)c(Cl)cn1` (single isomer, unassigned) [Example 104], for which the Kb worked out at 0.06 nM. Consider `COc1cc(C(C)C(=O)N2CC[C@@]3(CCc4cc(-c5ncccn5)c(C)nc4N3)C2)c(C)cn1` (single isomer, unassigned) [Example 136], for which the Kb is 0.16 nM. For the molecule `COc1cc([C@@H](C)C(=O)N2CC[C@@]3(CCc4cc(C5CCOCC5)c(C)nc4N3)C2)c(F)cn1` [Example 131, (2R)-2-(5-fluoro-2-methoxypyridin-4-yl)-1-[(2S)-7-methyl-6-(oxan-4-yl)-3,4-dihydro-1H-spiro[1,8-naphthyridine-2,3′-pyrrolidin]-1′-yl]propan-1-one], the Kb amounted to 16 nM. Same read-out and setting: as for `COc1cc([C@@H](C)C(=O)N2CC[C@@]3(CCc4cc(-c5ncc(Cl)cn5)c(C)nc4N3)C2)c(F)cn1` [Example 144, (2R)-1-[(2S)-6-(5-chloropyrimidin-2-yl)-7-methyl-3,4-dihydro-1H-spiro[1,8-naphthyridine-2,3′-pyrrolidin]-1′-yl]-2-(5-fluoro-2-methoxypyridin-4-yl)propan-1-one], the figure is 8.5 nM; as for `COc1ncc(F)c(C(C)C(=O)N2CC[C@@]3(CCc4cc(-c5nnn(C)n5)c(C)nc4N3)C2)n1` (single isomer, unassigned) [Example 134], above 97 nM; as for `COc1cc([C@@H](C)C(=O)N2CC[C@@]3(CCc4cc(-c5ccnnc5)c(C)nc4N3)C2)c(F)cn1` [Example 141, (2R)-2-(5-fluoro-2-methoxypyridin-4-yl)-1-[(2S)-7-methyl-6-(pyridazin-4-yl)-3,4-dihydro-1H-spiro[1,8-naphthyridine-2,3′-pyrrolidin]-1′-yl]propan-1-one], 29 nM. Still for that read-out and setting: as for `COc1cc([C@@H](C)C(=O)N2CC[C@@]3(CCc4cc(-c5nccc(C(F)(F)F)n5)c(C)nc4N3)C2)c(F)cn1` [Example 143, (2R)-2-(5-fluoro-2-methoxypyridin-4-yl)-1-{(2S)-7-methyl-6-[4-(trifluoromethyl)pyrimidin-2-yl]-3,4-dihydro-1H-spiro[1,8-naphthyridine-2,3′-pyrrolidin]-1′-yl}propan-1-one], the figure is 2.6 nM. In the case of `COc1cc([C@@H](C)C(=O)N2CC[C@@]3(CCc4cc(-c5nc6n(n5)CCC6(F)F)c(C)nc4N3)C2)c(F)cn1` [Example 147, (2R)-1-[(2S)-6-(7,7-difluoro-6,7-dihydro-5H-pyrrolo[12-b][1,2,4]triazol-2-yl)-7-methyl-3,4-dihydro-1H-spiro[1,8-naphthyridine-2,3′-pyrrolidin]-1′-yl]-2-(5-fluoro-2-methoxypyridin-4-yl)propan-1-one], the Kb was found to be 0.57 nM. For the molecule `COc1cc([C@@H](C)C(=O)N2CC[C@@]3(CCc4cc(-c5cnn6cccnc56)c(C)nc4N3)C2)c(F)cn1` [Example 154, (2R)-2-(5-fluoro-2-methoxypyridin-4-yl)-1-[(2S)-7-methyl-6-(pyrazolo[1,5-a]pyrimidin-3-yl)-3,4-dihydro-1H-spiro[1,8-naphthyridine-2,3′-pyrrolidin]-1′-yl]propan-1-one], the Kb was 9.5 nM. On the same count and under the same terms, as for `COc1cc(C(C)C(=O)N2CC[C@@]3(CCc4cc(-c5nnn(C)n5)c(C)nc4N3)C2)nc(C(F)F)n1` (single isomer, unassigned) [Example 127], the figure is 1.1 nM; as for `COc1cc([C@@H](C)C(=O)N2CC[C@@]3(CCc4cc(-c5cnn(C)n5)c(C)nc4N3)C2)c(F)cn1` [Example 118, (2R)-2-(5-fluoro-2-methoxypyridin-4-yl)-1-[(2S)-7-methyl-6-(2-methyl-2H-1,2,3-triazol-4-yl)-3,4-dihydro-1H-spiro[1,8-naphthyridine-2,3′-pyrrolidin]-1′-yl]propan-1-one], 0.93 nM; as for `COc1cc(C(C)C(=O)N2CC[C@@]3(CCc4cc(-c5nc(C(F)F)n(C)n5)c(C)nc4N3)C2)nc(C)n1` (single isomer, unassigned) [Example 123], 0.5 nM. For `COc1cc([C@@H](C)C(=O)N2CC[C@@]3(CCc4cc(-c5cnc(C)nc5)c(C)nc4N3)C2)c(F)cn1` [Example 151, (2R)-2-(5-fluoro-2-methoxypyridin-4-yl)-1-[(2S)-7-methyl-6-(2-methylpyrimidin-5-yl)-3,4-dihydro-1H-spiro[1,8-naphthyridine-2,3′-pyrrolidin]-1′-yl]propan-1-one], the Kb amounted to 40 nM. Same read-out and setting: under `COc1cc([C@@H](C)C(=O)N2CC[C@@]3(CCc4cc(-c5nc(C(F)F)n(C)n5)c(C)nc4N3)C2)c(F)cn1` [Example 122, (2R)-1-{(2S)-6-[5-(difluoromethyl)-1-methyl-1H-1,2,4-triazol-3-yl]-7-methyl-3,4-dihydro-1H-spiro[1,8-naphthyridine-2,3′-pyrrolidin]-1′-yl}-2-(5-fluoro-2-methoxypyridin-4-yl)propan-1-one] stands 0.11 nM. For `COc1cc([C@@H](C)C(=O)N2CC[C@@]3(CCc4cc(-c5cnc(C)cn5)c(C)nc4N3)C2)c(F)cn1` [Example 158, (2R)-2-(5-fluoro-2-methoxypyridin-4-yl)-1-[(2S)-7-methyl-6-(5-methylpyrazin-2-yl)-3,4-dihydro-1H-spiro[1,8-naphthyridine-2,3′-pyrrolidin]-1′-yl]propan-1-one], the Kb came to 23 nM.

The same assay, now with this note: read-out: Kb (nM) Antagonist geometric mean.
For `COc1cc([C@H](C)C(=O)N2CC[C@]3(CCc4cc(-c5ncccn5)c(C)nc4N3)C2)c(F)cn1` [Example 30, (2S)-2-(5-fluoro-2-methoxypyridin-4-yl)-1-[(2R)-7-methyl-6-(pyrimidin-2-yl)-3,4-dihydro-1H-spiro[1,8-naphthyridine-2,3′-pyrrolidin]-1′-yl]propan-1-one], the Kb is above 54 nM. Regarding `Cc1nc2c(cc1-c1ncccn1)CC[C@@]1(CCN(C(=O)[C@H](C)c3ccc(F)c(F)c3)C1)N2` (single isomer, unassigned) [Example 50], the antagonist equilibrium constant (Kb) worked out at 2.9 nM. With `COc1cc([C@@H](C)C(=O)N2CC[C@@]3(CCc4cc(-c5ncc(C(F)F)cn5)c(C)nc4N3)C2)c(F)cn1` [Example 21, (2R)-1-{(2S)-6-[5-(difluoromethyl)pyrimidin-2-yl]-7-methyl-3,4-dihydro-1H-spiro[1,8-naphthyridine-2,3′-pyrrolidin]-1′-yl}-2-(5-fluoro-2-methoxypyridin-4-yl)propan-1-one], the Kb stood at 20 nM. Regarding `COc1cc([C@@H](C)C(=O)N2CC[C@@]3(CCc4cc(-c5cn(C(F)(F)F)c(C)n5)c(C)nc4N3)C2)c(F)cn1` [Example 27, (2R)-2-(5-fluoro-2-methoxypyridin-4-yl)-1-{(2S)-7-methyl-6-[2-methyl-1-(trifluoromethyl)-1H-imidazol-4-yl]-3,4-dihydro-1H-spiro[1,8-naphthyridine-2,3′-pyrrolidin]-1′-yl}propan-1-one], the antagonist dissociation constant (Kb) came out at 4.6 nM. Take `Cc1nc2c(cc1-c1ncccn1)CC[C@@]1(CCN(C(=O)Cc3ccc(C(F)(F)F)cc3)C1)N2` [Example 73, 1-[(2S)-7-methyl-6-(pyrimidin-2-yl)-3,4-dihydro-1H-spiro[1,8-naphthyridine-2,3′-pyrrolidin]-1yl]-2-[4-(trifluoromethyl)phenyl]ethan-1-one]: the Kb is 17 nM. On the same count and under the same terms, as for `COc1cc([C@@H](C)C(=O)N2CC[C@@]3(CCc4cc(-c5nc(C(F)(F)F)n(C)n5)c(C)nc4N3)C2)c(F)cn1` (single isomer, unassigned) [Example 92], the figure is 0.16 nM. Same read-out and setting: as for `Cc1nc2c(cc1-c1ncccn1)CC[C@@]1(CCN(C(=O)Cc3cc(F)c(F)c(F)c3)C1)N2` [Example 54, 1-[(2S)-7-methyl-6-(pyrimidin-2-yl)-3,4-dihydro-1H-spiro[1,8-naphthyridine-2,3′-pyrrolidin]-1′-yl]-2-(3,4,5-trifluorophenyl)ethan-1-one], the figure is 4.1 nM. On to `COc1cc(OC)cc([C@@H](C)C(=O)N2CC[C@@]3(CCc4cc(-c5cnn(C)c5)c(C)nc4N3)C2)c1` (single isomer, unassigned) [Example 90], for which the antagonist equilibrium constant (Kb) was 0.4 nM. Still for that read-out and setting: as for `COc1cc([C@H](C)C(=O)N2CC[C@@]3(CCc4cc(-c5ncccn5)c(C)nc4N3)C2)c(F)cn1` [Example 28, (2S)-2-(5-fluoro-2-methoxypyridin-4-yl)-1-[(2S)-7-methyl-6-(pyrimidin-2-yl)-3,4-dihydro-1H-spiro[1,8-naphthyridine-2,3′-pyrrolidin]-1′-yl]propan-1-one], the figure is above 97 nM; as for `COc1cc([C@@H](C)C(=O)N2CC[C@]3(CCc4cc(-c5ncccn5)c(C)nc4N3)C2)c(F)cn1` [Example 29, (2R)-2-(5-fluoro-2-methoxypyridin-4-yl)-1-[(2R)-7-methyl-6-(pyrimidin-2-yl)-3,4-dihydro-1H-spiro[1,8-naphthyridine-2,3′-pyrrolidin]-1′-yl]propan-1-one], 12 nM.

Values taken from patent publication US12187727B2, “Methods for antagonizing a melanocortin 4 receptor” (Pfizer Inc., priority 2020, dated 2025).
